Data taken from ChEMBL document CHEMBL3638933, “Pyrrolopyridazine JAK3 inhibitors and their use for the treatment of inflammatory and autoimmune diseases” (2014).

What was measured:
[1] = biological target: T1, Tyrosine-protein kinase JAK3 (Homo sapiens, UniProt P52333); experiment: Reactions were incubated for 30 minutes at room temperature and stopped by the addition of cold trichloroacetic acid (TCA) to a final concentration of 15%. TCA precipitates were collected onto 384 well phosphocellulose filters (Millipore) using a Platemate to transfer the reaction mixture, washed on an EMBLA plate washer and the filters were quantitated using a TopCount 384-well liquid scintillation counter. […] Compounds were dissolved at 10 mM in dimethylsulfoxide (DMSO) and evaluated at six concentrations, each in triplicate. The final concentration of DMSO in the assay equaled 2%.
T1 sequence (P52333 whole entry): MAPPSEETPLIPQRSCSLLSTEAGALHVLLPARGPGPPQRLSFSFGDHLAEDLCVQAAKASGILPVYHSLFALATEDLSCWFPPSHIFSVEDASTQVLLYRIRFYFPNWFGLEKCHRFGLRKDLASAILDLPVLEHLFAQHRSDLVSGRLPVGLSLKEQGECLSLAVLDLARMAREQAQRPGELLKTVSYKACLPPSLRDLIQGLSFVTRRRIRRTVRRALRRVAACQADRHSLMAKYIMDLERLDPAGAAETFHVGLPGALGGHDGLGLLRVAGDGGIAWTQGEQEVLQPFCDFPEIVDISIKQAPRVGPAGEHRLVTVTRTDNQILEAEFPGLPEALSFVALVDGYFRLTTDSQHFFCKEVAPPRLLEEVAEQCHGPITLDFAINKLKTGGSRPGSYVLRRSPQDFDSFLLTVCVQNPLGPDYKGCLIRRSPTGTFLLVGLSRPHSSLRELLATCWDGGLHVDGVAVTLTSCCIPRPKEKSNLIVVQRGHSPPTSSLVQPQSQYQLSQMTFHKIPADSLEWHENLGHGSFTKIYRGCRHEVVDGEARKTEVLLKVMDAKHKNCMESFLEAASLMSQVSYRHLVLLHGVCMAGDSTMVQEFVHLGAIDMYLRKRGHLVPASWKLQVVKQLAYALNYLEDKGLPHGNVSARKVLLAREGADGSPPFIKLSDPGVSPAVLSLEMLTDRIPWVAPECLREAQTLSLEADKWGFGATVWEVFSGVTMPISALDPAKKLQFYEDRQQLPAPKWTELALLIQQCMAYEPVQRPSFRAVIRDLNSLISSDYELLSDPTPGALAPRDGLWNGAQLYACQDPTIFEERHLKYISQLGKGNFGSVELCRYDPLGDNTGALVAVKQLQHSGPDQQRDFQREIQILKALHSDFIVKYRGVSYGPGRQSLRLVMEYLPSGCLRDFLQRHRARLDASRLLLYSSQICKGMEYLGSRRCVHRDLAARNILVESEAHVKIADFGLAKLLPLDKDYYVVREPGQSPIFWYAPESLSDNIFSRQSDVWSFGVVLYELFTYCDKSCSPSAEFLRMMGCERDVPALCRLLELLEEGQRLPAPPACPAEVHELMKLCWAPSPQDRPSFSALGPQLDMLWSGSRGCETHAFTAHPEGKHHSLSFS

[2] = biological target: Tyrosine-protein kinase JAK1 (Homo sapiens, UniProt P23458); experiment: Kinase Assay: The assay reactions were performed in U-bottom 384-well plates. The final assay volume was 30 ul prepared from 15 ul additions of enzyme and substrates (fluoresceinated peptide and ATP) and test compounds in assay buffer (20 mM HEPES pH 7.4, 10 mM MgCl2, 25 mM beta-glycerol phosphate, 0.015% Brij35 and 4 mM DTT). The reaction was initiated by the combination of GST-JAK1 enzyme with substrates and test compounds. The reactions were incubated at room temperature for 3 hours and terminated by adding 60 ul of 35 mM EDTA to each sample. Each reaction mixture was analyzed on the Caliper LabChip 3000 (Caliper, Hopkinton, MA) by electrophoretic separation of the fluorescent substrate and phosphorylated product. […] The final concentration of reagents in the assays was: ATP, 100 uM; fluoresceinated peptide.
Tyrosine-protein kinase JAK1, sequence (P23458 whole entry): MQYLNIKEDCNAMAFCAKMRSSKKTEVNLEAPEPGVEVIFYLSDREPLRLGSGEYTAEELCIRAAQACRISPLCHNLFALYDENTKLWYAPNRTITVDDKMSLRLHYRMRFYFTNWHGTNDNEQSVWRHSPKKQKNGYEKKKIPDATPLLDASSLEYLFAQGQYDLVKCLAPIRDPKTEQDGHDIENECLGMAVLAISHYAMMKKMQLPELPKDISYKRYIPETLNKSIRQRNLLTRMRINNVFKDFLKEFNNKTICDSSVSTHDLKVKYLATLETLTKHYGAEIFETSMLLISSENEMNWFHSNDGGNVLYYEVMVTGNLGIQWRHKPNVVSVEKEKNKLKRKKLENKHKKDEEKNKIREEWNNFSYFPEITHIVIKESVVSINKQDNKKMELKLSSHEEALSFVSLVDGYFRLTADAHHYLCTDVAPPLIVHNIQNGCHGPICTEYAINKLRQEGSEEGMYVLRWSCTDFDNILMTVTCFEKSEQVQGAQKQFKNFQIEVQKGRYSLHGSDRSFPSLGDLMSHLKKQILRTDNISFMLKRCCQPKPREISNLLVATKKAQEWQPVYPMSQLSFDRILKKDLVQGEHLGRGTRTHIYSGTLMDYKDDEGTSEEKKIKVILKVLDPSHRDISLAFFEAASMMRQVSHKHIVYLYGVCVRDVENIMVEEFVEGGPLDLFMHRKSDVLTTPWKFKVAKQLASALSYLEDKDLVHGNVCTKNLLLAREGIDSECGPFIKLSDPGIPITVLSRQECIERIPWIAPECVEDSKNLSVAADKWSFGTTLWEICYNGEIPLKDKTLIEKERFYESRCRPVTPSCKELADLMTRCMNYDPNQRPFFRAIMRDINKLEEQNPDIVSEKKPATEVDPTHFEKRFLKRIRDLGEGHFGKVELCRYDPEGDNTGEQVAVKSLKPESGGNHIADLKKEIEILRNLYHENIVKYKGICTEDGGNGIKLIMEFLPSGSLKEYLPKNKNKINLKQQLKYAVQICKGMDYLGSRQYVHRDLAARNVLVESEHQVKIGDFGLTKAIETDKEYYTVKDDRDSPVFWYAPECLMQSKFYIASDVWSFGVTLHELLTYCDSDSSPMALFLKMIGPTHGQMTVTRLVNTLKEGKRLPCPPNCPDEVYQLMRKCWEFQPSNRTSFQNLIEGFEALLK

- IC50 [1]: 1 nM
- IC50 [2]: 5.8 nM
Compound: CC1(C)[C@H](Nc2c(C(N)=O)cnn3cc(-c4ccc(C#N)nc4)cc23)CC[C@]1(C)C(N)=O
